Assay type in all cases: cell-based
One assay deals with SW900 lung cancer cells. Put plainly: CELLTITER-GLO luminescent cell viability assay, SW900 96-well drug screening plate. As to conditions: Homo sapiens, 72 hours. As to the method: (§1) In example 1, CELLTITER-GLO was used to test sulindac against lung cancer
(§2) 1. Cell Plating • a) The complete medium required for each cell was prepared. • b) Before beginning the experiment, the name of the drug screened for the cells marked on the 100 mm petri dish was confirmed as well as information such as the passage time and number of passages to ensure the experiment was error-free. • c) Refer to steps d) through i) for procedures for adherent cells; refer to steps j) through l) for procedures for suspension cells. • d) When using aseptic technique, a vacuum pump was used to draw the cell culture medium. • e) 2 ml of a sterile PBS solution was used to rinse cell surfaces, and a vacuum pump was used to aspirate the PBS waste. • f) A 1 ml 0.25% (w/v) Trypsin-0.038% (w/v) EDTA solution was gently added to the petri dish for cell digestion, and after gently mixing several times, the solution covered the cell surfaces. […]

The subject of assay [1] is LOVO (ATCC CCL-229) lung cancer cells. Put plainly: CELLTITER-GLO luminescent cell viability assay, LOVO cells (same method). Particulars: Homo sapiens. As to the method: as §2
(Cellular ATP, detected with luciferase, serves as a proxy for viable cell number.)

Assay [2] has as its system NCI-H720 lung cancer cells. Put plainly: CELLTITER-GLO luminescent cell viability assay, NCI-H720 96-well drug screening plate. As to conditions: 72 hours. How it is done: as §1, §2

Turning to `CC1=C(CC(=O)O)c2cc(F)ccc2/C1=C\c1ccc([S+](C)[O-])cc1` (stereo not shown) [sulindac], the IC50 with SW900 lung cancer cells was determined as 50.3 µM; in assay [1] it was 100 µM; in assay [2] (CellTiter-Glo) it was 42.7 µM. For the same molecule, the EC50 in assay [2] (FIG. 2 curve fit) came out at 38.6 µM.

As usually defined, the IC50 is the point on the concentration scale where inhibition reaches its midpoint. A low value points to inhibition by little substance. As usually defined, the EC50 is the concentration that produces a half-maximal response.

Values taken from US11903914B2, “Applications for sulindac in preparing anti-lung cancer products” (SHANGHAI JIAO TONG UNIVERSITY, priority 2015, dated 2024).
